Experimental data reported in ChEMBL document CHEMBL3352799, “Arylazolyl(azinyl)thioacetanilides. Part 16: Structure-based bioisosterism design, synthesis and biological evaluation of novel pyrimidinylthioacetanilides as potent HIV-1 inhibitors” (Bioorg Med Chem, 2014).
The source made the active and inactive calls. The calls are words filed in the database; no cut-off is given here.

How the values were obtained:
[1] = test system: Human immunodeficiency virus 1; assay: Antiviral activity against HIV1 3B infected in human MT4 cells assessed as reduction in virus-induced cytopathogenicity by MTT assay; type: functional, organism-based; conditions: Human immunodeficiency virus 1, 3B
[2] = Selectivity index, ratio of CC50 for human MT4 cells to EC50 for HIV1 3B infected in human MT4 cells; type: toxicity, cell-based; conditions: read-out: Ratio CC50/EC50
[3] = test system: Human immunodeficiency virus 1; assay: Antiviral activity against HIV1 RES056 expressing reverse transcriptase K103N/Y181C double mutant infected in human MT4 cells assessed as reduction in virus-induced cytopathogenicity by MTT assay; type: functional, organism-based; conditions: Human immunodeficiency virus 1, RES056, MT4
[4] = Selectivity index, ratio of CC50 for human MT4 cells to EC50 for HIV1 RES056 expressing reverse transcriptase K103N/Y181C double mutant infected in human MT4 cells; type: toxicity, cell-based; conditions: read-out: Ratio CC50/EC50
[5] = Cytotoxicity against human MT4 cells by MTT assay; type: cell-based
[6] = test system: Human immunodeficiency virus 2; assay: Antiviral activity against HIV2 ROD infected in human MT4 cells assessed as reduction in virus-induced cytopathogenicity by MTT assay; type: functional, organism-based; conditions: ISOLATE ROD
[7] = molecular target: Human immunodeficiency virus type 1 reverse transcriptase (Human immunodeficiency virus 1, UniProt Q72547); assay: Inhibition of HIV1 reverse transcriptase assessed as inhibition of biotin-dUTP incorporation using hybrid poly (A).oligo (dT)15 template primer incubated for 1 hr at 37 degC by ELISA method

| Compound | EC50 [1] | selectivity ratio [2] | EC50 [3] | selectivity ratio [4] | CC50 [5] | inhibition [6] | IC50 [7] |
| --- | --- | --- | --- | --- | --- | --- | --- |
| CCOC(=O)c1ccc(NC(=O)CSc2ncncc2-c2cccc3ccccc23)c(Cl)c1 | 4.55 µM | 43 | > 195 µM | < 1 | 195 µM | inactive | – |
| Cc1ccnc2c1NC(=O)c1cccnc1N2C1CC1 [NEVIRAPINE] | – | – | > 14.4 µM | – | > 14.4 µM | – | – |
| O=C1Nc2ccc(Cl)cc2[C@@](C#CC2CC2)(C(F)(F)F)O1 [EFAVIRENZ] | 0.0053 µM | > 1180 | 0.23 µM | > 27 | > 6.3 µM | – | – |
| O=C(CSc1nnccc1-c1cccc2ccccc12)Nc1ccccc1[N+](=O)[O-] | – | 2150 | – | – | – | – | – |
| NS(=O)(=O)c1ccc(NC(=O)CSc2nncnc2-c2cccc3ccccc23)c(Br)c1 | – | 1290 | – | – | – | – | – |
| CCOC(=O)CNC(=O)c1ccc(NC(=O)CSc2ncncc2-c2cccc3ccccc23)c(Cl)c1 | 0.15 µM | 684 | 30.6 µM | 3 | 105 µM | inactive | 1.31 µM |
| COC(=O)c1ccc(NC(=O)CSc2ncncc2-c2cccc3ccccc23)c(Cl)c1 | 2.84 µM | 54 | > 154 µM | < 1 | 154 µM | inactive | – |
| O=C(CSc1nccnc1-c1ccccc1Cl)Nc1ccccc1[N+](=O)[O-] | – | 23 | – | – | – | – | – |
| COc1ccc(Cn2cc(CSc3ncncc3-c3cccc4ccccc34)nn2)cc1 | > 31.1 µM | < 1 | > 31.2 µM | < 1 | 31.2 µM | inactive | – |
| NS(=O)(=O)c1ccc(NC(=O)CSc2ncncc2-c2cccc3ccccc23)c(Br)c1 | 0.18 µM | 132 | 3.9 µM | 6 | 24.1 µM | inactive | – |
| CCOC(=O)C(C)NC(=O)c1ccc(NC(=O)CSc2ncncc2-c2cccc3ccccc23)c(Cl)c1 (configuration not stated) | 2.76 µM | 13 | > 35.6 µM | < 1 | 35.6 µM | inactive | – |
| CC(C)Nc1cccnc1N1CCN(C(=O)c2cc3cc(NS(C)(=O)=O)ccc3[nH]2)CC1 [DELAVIRDINE] | 0.49 µM | > 89 | > 43.8 µM | 1 | > 43.8 µM | – | – |
| Brc1ccccc1Cn1cc(CSc2ncncc2-c2cccc3ccccc23)nn1 | > 39.4 µM | < 1 | > 39.4 µM | < 1 | 39.4 µM | inactive | – |
| CCOC(=O)c1ccc(NC(=O)CSc2ncncc2-c2cccc3ccccc23)c(Br)c1 | 4.46 µM | 47 | > 211 µM | < 1 | 211 µM | inactive | – |
| COC(=O)c1ccc(NC(=O)CSc2ncncc2-c2cccc3ccccc23)c([N+](=O)[O-])c1 | 3.58 µM | ≥ 55 | > 196 µM | 1 | ≥ 196 µM | inactive | – |
| CONC(=O)c1ccc(NC(=O)CSc2ncncc2-c2cccc3ccccc23)c(Cl)c1 | 0.75 µM | 175 | > 131 µM | < 1 | 131 µM | inactive | – |
| O=C(O)c1ccc(-n2cc(CSc3ncncc3-c3cccc4ccccc34)nn2)cc1 | > 95.9 µM | < 1 | > 95.9 µM | < 1 | 95.9 µM | inactive | – |
| O=C(CSc1ncncc1-c1cccc2ccccc12)Nc1ccccc1[N+](=O)[O-] | 0.91 µM | 25 | > 22.5 µM | < 1 | 22.5 µM | inactive | – |
| O=C(CSc1ncncc1-c1cccc2ccccc12)Nc1ccc(C(=O)NO)cc1Cl | 0.63 µM | 8 | > 4.8 µM | < 1 | 4.8 µM | inactive | – |
| O=C(CSc1ncncc1-c1cccc2ccccc12)Nc1ccc(C(=O)O)nc1Cl | 24.2 µM | 5 | > 127 µM | < 1 | 127 µM | inactive | – |
| O=C(CSc1ncncc1-c1cccc2ccccc12)Nc1ccc(C(=O)O)cc1Cl | 8.13 µM | 13 | > 108 µM | < 1 | 108 µM | inactive | – |
| COC(=O)c1ccc(NC(=O)CSc2ncncc2-c2cccc3ccccc23)c(Br)c1 | 2.42 µM | 69 | > 168 µM | < 1 | 168 µM | inactive | – |
